Legend:
A2780 = test: Cytotoxicity against human A2780 cells; format: functional, cell-based
ABAE = test: Cytotoxicity against bovine ABAE cells; format: functional, cell-based, Bos taurus
SK-BR-3 = test: Cytotoxicity against human SKBR3 cells; format: functional, cell-based
HCT-116 = test: Cytotoxicity against human HCT116 cells; format: functional, cell-based

Row | SMILES | IC50 (A2780) [nM] | IC50 (ABAE) [nM] | IC50 (SK-BR-3) [nM] | IC50 (HCT-116) [nM]
1 | O=c1c2c(O)cccc2oc2ccc3c(c12)CC(C(O)(CO)CCl)O3 (configuration not stated) [PSOROXANTHIN CHLOROHYDRIN] | 42 | 4 | 2000 | 68
2 | O=c1c2c(O)cccc2oc2ccc3c(c12)CC(C1(CO)CO1)O3 (configuration not stated) [PSOROXANTHIN] | 330 | 102 |  | 1000
